Data published in ChEMBL document CHEMBL1154443, “In vivo studies of 5-arylethenylbenzofuroxans in acute murine models of Chagas' disease” (Eur J Med Chem, 2008).
Active and inactive are the calls of the source. The rule behind the calls is not given here.

How the values were obtained:
[1] = test system: Trypanosoma cruzi; assay: Antitrypanosomal activity against Trypanosoma cruzi Colombiana infected Swiss mouse assessed as reduction in circulating trypomastigotes antibody level at 120 mg/kg/day, po after 44 days postinfection; type: functional, organism-based
[2] = test system: Trypanosoma cruzi; assay: Antitrypanosomal activity against Trypanosoma cruzi Tulahuen 2 infected Swiss mouse assessed as reduction in circulating trypomastigotes antibody level at 200 mg/kg/day, po after 60 days postinfection; type: functional, organism-based
[3] = test system: Trypanosoma cruzi; assay: Antitrypanosomal activity against Trypanosoma cruzi Tulahuen 2 infected Swiss mouse assessed as reduction in circulating trypomastigotes antibody level at 200 mg/kg/day, po after 90 days postinfection; type: functional, organism-based
[4] = test system: Trypanosoma cruzi; assay: Antitrypanosomal activity against Trypanosoma cruzi Tulahuen 2 infected Swiss mouse assessed as prevention of heart inflammatory infiltrates at 200 mg/kg/day, po; type: functional, organism-based
[5] = test system: Trypanosoma cruzi; assay: Antitrypanosomal activity against Trypanosoma cruzi Tulahuen 2 infected Swiss mouse assessed as prevention of muscle inflammatory infiltrates at 200 mg/kg/day, po; type: functional, organism-based; settings: Muscle tissue
[6] = test system: Trypanosoma cruzi; assay: Antitrypanosomal activity against Trypanosoma cruzi Tulahuen 2 infected Swiss mouse assessed as prevention of liver congestion at 200 mg/kg/day, po; type: functional, organism-based
[7] = test system: Trypanosoma cruzi; assay: Antitrypanosomal activity against Trypanosoma cruzi Colombiana infected Swiss mouse assessed as prevention of heart inflammatory infiltrates at 120 mg/kg/day, po; type: functional, organism-based
[8] = test system: Trypanosoma cruzi; assay: Antitrypanosomal activity against Trypanosoma cruzi Colombiana infected Swiss mouse assessed as prevention of skeletal muscle inflammatory infiltrates at 120 mg/kg/day, po; type: functional, organism-based; settings: Muscle tissue
[9] = test system: Trypanosoma cruzi; assay: Antitrypanosomal activity against Trypanosoma cruzi Colombiana infected Swiss mouse assessed as prevention of liver congestion at 120 mg/kg/day, po; type: functional, organism-based
[10] = Toxicity against Trypanosoma cruzi Colombiana infected Swiss mouse assessed as mouse survival at 120 mg/kg/day, po after 25 days; type: organism-based; parameters: route oral; settings: in vivo, read-out: Activity
[11] = test system: Trypanosoma cruzi; assay: Antitrypanosomal activity against Trypanosoma cruzi Tulahuen 2 infected Swiss mouse assessed as prevention of heart inflammatory infiltrates at 120 mg/kg/day, po; type: functional, organism-based
[12] = test system: Trypanosoma cruzi; assay: Antitrypanosomal activity against Trypanosoma cruzi Tulahuen 2 infected Swiss mouse assessed as prevention of muscle inflammatory infiltrates at 120 mg/kg/day, po; type: functional, organism-based; settings: Muscle tissue
[13] = test system: Trypanosoma cruzi; assay: Antitrypanosomal activity against Trypanosoma cruzi Tulahuen 2 infected Swiss mouse assessed as prevention of liver congestion at 120 mg/kg/day, po; type: functional, organism-based
[14] = test system: Trypanosoma cruzi; assay: Antitrypanosomal activity against Trypanosoma cruzi Colombiana infected Swiss mouse assessed as reduction in circulating trypomastigotes antibody level at 120 mg/kg/day, po after 90 days postinfection; type: functional, organism-based
[15] = Toxicity against Trypanosoma cruzi Tulahuen 2 infected Swiss mouse assessed as mouse survival at 120 mg/kg/day, po after 25 days; type: organism-based; parameters: route oral; settings: in vivo, read-out: Activity
[16] = test system: Mus musculus; assay: Toxicity against Trypanosoma cruzi infected CD1 mouse assessed as effect on heart histology at 450 mg/kg, po; type: organism-based; parameters: dose 450 mg/kg, route oral; settings: in vivo
[17] = test system: Trypanosoma cruzi; assay: Antitrypanosomal activity against Trypanosoma cruzi Tulahuen 2 infected Swiss mouse assessed as suppression of parasitemia at 60 mg/kg/day, po; type: functional, organism-based
[18] = test system: Trypanosoma cruzi; assay: Antitrypanosomal activity against Trypanosoma cruzi Tulahuen 2 infected Swiss mouse assessed as suppression of parasitemia at 120 mg/kg/day, po; type: functional, organism-based
[19] = test system: Trypanosoma cruzi; assay: Antitrypanosomal activity against Trypanosoma cruzi Argentinian isolate infected Swiss mouse assessed as suppression of parasitemia at 60 mg/kg/day, po; type: functional, organism-based
[20] = test system: Trypanosoma cruzi; assay: Antitrypanosomal activity against Trypanosoma cruzi Uruguayan isolate infected CD1 mouse assessed as suppression of parasitemia at 60 mg/kg/day, po after 17 day postinfection; type: functional, organism-based
[21] = test system: Trypanosoma cruzi; assay: Antitrypanosomal activity against Trypanosoma cruzi Argentinian isolate infected Swiss mouse assessed as prevention of heart inflammatory infiltrates at 60 mg/kg/day, po; type: functional, organism-based
[22] = test system: Trypanosoma cruzi; assay: Antitrypanosomal activity against Trypanosoma cruzi Argentinian isolate infected Swiss mouse assessed as inhibition of heart amastigote nests at 60 mg/kg/day, po; type: functional, organism-based
[23] = test system: Trypanosoma cruzi; assay: Antitrypanosomal activity against Trypanosoma cruzi Argentinian isolate infected Swiss mouse assessed as prevention of skeletal muscle inflammatory infiltrates at 60 mg/kg/day, po; type: functional, organism-based; settings: Muscle tissue
[24] = test system: Trypanosoma cruzi; assay: Antitrypanosomal activity against Trypanosoma cruzi Argentinian isolate infected Swiss mouse assessed as inhibition of skeletal muscle amastigote nests at 60 mg/kg/day, po; type: functional, organism-based; settings: Muscle tissue
[25] = test system: Trypanosoma cruzi; assay: Antitrypanosomal activity against Trypanosoma cruzi Argentinian isolate infected Swiss mouse assessed as prevention of liver congestion at 60 mg/kg/day, po; type: functional, organism-based
[26] = test system: Mus musculus; assay: Toxicity against Trypanosoma cruzi infected CD1 mouse assessed as effect on liver histology at 300 mg/kg, ip; type: organism-based; parameters: dose 300 mg/kg, route intraperitoneal; settings: in vivo
[27] = test system: Mus musculus; assay: Toxicity against Trypanosoma cruzi infected CD1 mouse assessed as effect on liver histology at 450 mg/kg, po; type: organism-based; parameters: dose 450 mg/kg, route oral; settings: in vivo
[28] = test system: Mus musculus; assay: Toxicity against Trypanosoma cruzi infected CD1 mouse assessed as effect on heart histology at 300 mg/kg, ip; type: organism-based; parameters: dose 300 mg/kg, route intraperitoneal; settings: in vivo
[29] = test system: Mus musculus; assay: Toxicity against Trypanosoma cruzi infected CD1 mouse assessed as effect on kidney histology at 450 mg/kg, po; type: organism-based; parameters: dose 450 mg/kg, route oral; settings: in vivo
[30] = test system: Mus musculus; assay: Toxicity against Trypanosoma cruzi infected CD1 mouse assessed as effect on kidney histology at 300 mg/kg, ip; type: organism-based; parameters: dose 300 mg/kg, route intraperitoneal; settings: in vivo
[31] = test system: Trypanosoma cruzi; assay: Antitrypanosomal activity against Trypanosoma cruzi Tulahuen 2 infected Swiss mouse assessed as reduction in circulating trypomastigotes antibody level at 120 mg/kg/day, po after 60 days postinfection; type: functional, organism-based
[32] = test system: Trypanosoma cruzi; assay: Antitrypanosomal activity against Trypanosoma cruzi Tulahuen 2 infected Swiss mouse assessed as reduction in circulating trypomastigotes antibody level at 120 mg/kg/day, po after 90 days postinfection; type: functional, organism-based

SMILES	Activity [1]	Activity [7]	Activity [8]	Activity [9]	survival at 600 h [10] [%]	Activity [11]	Activity [12]	Activity [13]	Activity [14]	survival at 600 h [15] [%]	Activity [16]	Activity [21]	Activity [22]	Activity [23]	Activity [24]	Activity [25]	Activity [26]	Activity [27]	Activity [28]	Activity [29]	further results
O=C(Cn1ccnc1[N+](=O)[O-])NCc1ccccc1 [BENZNIDAZOLE]	Active	Active	Active	Active	100	–	–	–	–	–	–	–	–	–	–	–	–	–	–	–	Activity [2]: Active; Activity [3]: Active; Activity [4]: Active; Activity [5]: Active; Activity [6]: Active
[O-][n+]1onc2ccc(/C=C\c3ccc4c(c3)OCO4)cc21	inactive	Active	Active	Active	100	Active	Active	Active	Active	100	–	–	–	–	–	–	–	–	–	–	–
[O-][n+]1onc2ccc(/C=C/c3ccccc3)cc21	inactive	Active	Active	Active	100	Active	Active	Active	Active	100	Non-toxic	Active	Active	Active	Active	Active	Non-toxic	Non-toxic	Non-toxic	Non-toxic	Activity [17]: Active; Activity [18]: Active; Activity [19]: Active; Activity [20]: Active; Activity [30]: Non-toxic
[O-][n+]1onc2ccc(/C=C/c3ccc4c(c3)OCO4)cc21	inactive	Active	Active	Active	100	Active	Active	Active	–	100	–	–	–	–	–	–	–	–	–	–	Activity [31]: Active; Activity [32]: Active
CC1CS(=O)(=O)CCN1/N=C/c1ccc([N+](=O)[O-])o1 (configuration not stated) [NIFURTIMOX]	–	–	–	–	–	–	–	–	–	–	Non-toxic	Active	Active	Active	Active	Active	Toxic	Toxic	Non-toxic	Toxic	Activity [30]: Non-toxic
